Assay results as given in patent US20040266766A1, “Selective urokinase inhibitors” (Wilex AG, priority 2001, published 2004).
pKi: −log10 of the molar value. Structures can show the parent of a compound that is named as a salt. Where two headings read alike, the source gives them in different places.

Tests used:
urokinase (uPA) = target: T1, urokinase (uPA) (Homo sapiens, UniProt P00749); experiment: In vitro inhibition of urokinase (Ki according to Dixon, chromogenic substrate); format: biochemical
T1 construct: purchased Calbiochem-Novabiochem GmbH, Bad Soden, Germany
Experimental: In order to determine the inhibitory activity, 200 μl Tris buffer (0.05 mol/l containing the inhibitor, 0.154 mol/l NaCl, pH 8.0), 25 μl substrate (Pefachrome uPA, Pefachrome PL or Pefabloc TH in H2O; Pentapharm Ltd, Basle, Switzerland) and 50 μl urokinase (Calbiochem-Novabiochem GmbH, Bad Soden, Germany) or another appropriate protease e.g. plasmin, thrombin or FXa are incubated for 10 minutes at 30° C. After ca. 30 minutes and 30 cycles the absorption is determined at 405 nm by means of a microplate reader (Mediators PHL, Aureon Biosystems, Vienna, Austria). The Ki values were determined according to Dixon by linear regression using a computer program.

[1] = Oral bioavailability and plasma kinetics in mice (serum concentration); format: in vivo, Balb/c mice; conditions: mouse; for concentration at 20 min / concentration at 40 min / concentration at 60 min: female, Balb/c, serum, po, read-out: c in the serum 1st analysis; for concentration at 20 min: sample at 20 minutes; for concentration at 40 min: sample at 40 minutes; for concentration at 60 min: sample at 60 minutes; for c in the serum 1st analysis: 10 mg/kg i.v.
[2] = summary table, read-out: Ki uPA

`N=C(N)Nc1ccc(CNC(=O)CNC(=O)C(CO)NC(=O)Nc2ccc(Oc3ccccc3)cc2)cc1` (stereo not drawn) [WX-C310, 4-Phenoxyphenyl-aminocarbonyl-(D)-Ser-Gly-(4-guanidinobenzyl)amide hydrochloride] showed a pKi (urokinase (uPA); read-out: Ki uPA) of 5.70.
In the case of `CC(=O)c1cccc(NC(=O)NC(CO)C(=O)NCC(=O)NCc2ccc(NC(=N)N)cc2)c1` (stereo not drawn) [WX-C314, 3-Acetylphenyl-aminocarbonyl-(D)-Ser-Gly-(4-guanidinobenzyl)amide hydrochloride], the “Ki uPA” value (urokinase (uPA)) was “no inh. *)”.
For `N=C(N)Nc1ccc(CNC(=O)CNC(=O)C(CO)NC(=O)Nc2ccc(Br)cc2Br)cc1` (stereo not drawn) [WX-C338, 2,4-Dibromophenyl-aminocarbonyl-(D)-Ser-Gly-(4-guanidinobenzyl)amide hydrochloride], the pKi (urokinase (uPA); read-out: Ki uPA) was < 4.70.
For `N=C(N)Nc1ccc(CNC(=O)CNC(=O)C(CO)NC(=O)NC23CC4CC(CC(C4)C2)C3)cc1` (stereo not drawn) [WX-C320, 1-Adamantyl-aminocarbonyl-(D)-Ser-Gly-(4-guanidinobenzyl)amide hydrochloride], the pKi (urokinase (uPA); read-out: Ki uPA) was < 4.70.
For `CCCCS(=O)(=O)NC(CO)C(=O)NCC(=O)NCc1ccc(NC(=N)N)cc1` (stereo not drawn) [WX-C300, n-Butyl-sulfonyl-(D)-Ser-Gly-(4-guanidinobenzyl)amide hydrochloride], the concentration at 20 min ([1]; 30 mg/kg, 30 mg/kg oral) was 200 ng/mL, the concentration at 40 min ([1]; 30 mg/kg, 30 mg/kg oral) was 200 ng/mL and the concentration at 60 min ([1]; 30 mg/kg, 30 mg/kg oral) was 200 ng/mL. It also gave a concentration at 20 min ([1]; 300 mg/kg, 300 mg/kg oral) of 1500 ng/mL, a concentration at 40 min ([1]; 300 mg/kg, 300 mg/kg oral) of 4600 ng/mL and a concentration at 60 min ([1]; 300 mg/kg, 300 mg/kg oral) of 600 ng/mL. The “c in the serum 1st analysis” value ([1]; time of sample collection 0) was 94.4 µg/mL, the “c in the serum 1st analysis” value ([1]; time of sample collection 10) was 11.0 µg/mL and the “c in the serum 1st analysis” value ([1]; time of sample collection 30) was 1.3 µg/mL. For the same compound, the pKi (urokinase (uPA); list of test substances of Example 17, read-out: Ki human uPA) was 6.57, the pKi (urokinase (uPA); read-out: Ki uPA) was 6.57 and the pKi (urokinase (uPA); [2]) was 6.57.
Work on `CCOC(=O)c1ccc(NC(=O)NC(CO)C(=O)NCC(=O)NCc2ccc(NC(=N)N)cc2)cc1` (stereo not drawn) [WX-C336, 4-Ethyloxycarbonylphenyl-aminocarbonyl-(D)-Ser-Gly-(4-guanidinobenzyl)amide hydrochloride] yielded a pKi (urokinase (uPA); read-out: Ki uPA) of 4.88.
Work on `N=C(N)Nc1ccc(CNC(=O)CNC(=O)C(CN)NS(=O)(=O)Cc2ccccc2)cc1` (stereo not drawn) [WX-M6, Benzylsulfonyl-(D)-Dap-Gly-(4-guanidinobenzyl)amide bis-hydrochloride] yielded a pKi (urokinase (uPA); read-out: Ki uPA) of 6.82.
With `N=C(N)Nc1ccc(CNC(=O)CNC(=O)C(CO)NC(=O)Nc2ccccc2Cl)cc1` (stereo not drawn) [WX-C304, 2-Chlorophenyl-aminocarbonyl-(D)-Ser-Gly-(4-guanidinobenzyl)amide hydrochloride] the “Ki uPA” value (urokinase (uPA)) was “no inh. *)”.
With `N=C(N)Nc1ccc(CNC(=O)CNC(=O)C(CO)NC(=O)Nc2ccc3c(c2)OCCO3)cc1` (stereo not drawn) [WX-C326, 2,3-Dihydro-1,4-benzodioxin-6-yl-aminocarbonyl-(D)-Ser-Gly-(4-guanidinobenzyl)amide hydrochloride] the pKi (urokinase (uPA); read-out: Ki uPA) was < 4.70.
In the case of `N=C(N)Nc1ccc(CNC(=O)CNC(=O)C(CO)NC(=O)Nc2ccccc2Br)cc1` (stereo not drawn) [WX-C322, 2-Bromophenyl-aminocarbonyl-(D)-Ser-Gly-(4-guanidinobenzyl)amide hydrochloride], the pKi (urokinase (uPA); read-out: Ki uPA) was < 4.70.
In the case of `N=C(N)Nc1ccc(CNC(=O)CNC(=O)C(CO)NC(=O)Cc2ccc(O)c(O)c2)cc1` (stereo not drawn) [WX-571, 3,4-Dihydroxyphenyl-acetyl-(D)-Ser-Gly-(4-guanidinobenzyl)amide hydrochloride], the pKi (urokinase (uPA); read-out: Ki uPA) was 4.83.
With `N=C(N)Nc1ccc(CNC(=O)CNC(=O)C(CO)NC(=O)Nc2cccc(Cl)c2Cl)cc1` (stereo not drawn) [WX-C334, 2,3-Dichlorophenyl-aminocarbonyl-(D)-Ser-Gly-(4-guanidinobenzyl)amide hydrochloride] the pKi (urokinase (uPA); read-out: Ki uPA) was < 4.70.
In the case of `N=C(N)Nc1ccc(NNC(=O)CNC(=O)[C@@H](CO)NS(=O)(=O)Cc2ccccc2)cc1` [WX-600, N-[N′-guanidino-phenyl)-hydrazinocarbonyl-methyl]-3-hydroxy-2-phenyl-methanesulfonylamino-propionamide hydrochloride], the pKi (urokinase (uPA); read-out: Ki uPA) was 5.68.
With `COc1ccc(NC(=O)NC(CO)C(=O)NCC(=O)NCc2ccc(NC(=N)N)cc2)cc1` (stereo not drawn) [WX-C306, 4-Methoxyphenyl-aminocarbonyl-(D)-Ser-Gly-(4-guanidinobenzyl)amide hydrochloride] the pKi (urokinase (uPA); read-out: Ki uPA) was 5.39.
In the case of `COc1cc(NC(=O)NC(CO)C(=O)NCC(=O)NCc2ccc(NC(=N)N)cc2)cc(OC)c1OC` (stereo not drawn) [WX-C308, 3,4,5-Tri-methoxyphenyl-aminocarbonyl-(D)-Ser-Gly-(4-guanidinobenzyl)amide hydrochloride], the pKi (urokinase (uPA); read-out: Ki uPA) was < 4.70.
`N=C(N)Nc1ccc(CNC(=O)CNC(=O)C(CO)NC(=O)Nc2ccc([N+](=O)[O-])cc2)cc1` (stereo not drawn) [WX-C342, 4-Nitrophenyl-aminocarbonyl-(D)-Ser-Gly-(4-guanidinobenzyl)amide hydrochloride] gave a pKi (urokinase (uPA); read-out: Ki uPA) of 5.31.
`CCOC(=O)c1cccc(NC(=O)NC(CO)C(=O)NCC(=O)NCc2ccc(NC(=N)N)cc2)c1` (stereo not drawn) [WX-C312, 3-Ethoxycarbonylphenyl-aminocarbonyl-(D)-Ser-Gly-(4-guanidinobenzyl)amide hydrochloride] gave a pKi (urokinase (uPA); read-out: Ki uPA) of 5.85.
In the case of `N=C(N)Nc1ccc(CNC(=O)CNC(=O)C(CO)NC(=O)Nc2cccc3ccccc23)cc1` (stereo not drawn) [WX-C328, 1-Naphthyl-aminocarbonyl-(D)-Ser-Gly-(4-guanidinobenzyl)amide hydrochloride], the pKi (urokinase (uPA); read-out: Ki uPA) was < 4.70.
For `CC(=O)c1ccc(NC(=O)NC(CO)C(=O)NCC(=O)NCc2ccc(NC(=N)N)cc2)cc1` (stereo not drawn) [WX-C330, 4-Acetylphenyl-aminocarbonyl-(D)-Ser-Gly-(4-guanidinobenzyl)amide hydrochloride], the pKi (urokinase (uPA); read-out: Ki uPA) was < 4.70.
For `N=C(N)Nc1ccc(CNC(=O)CNC(=O)C(CO)NC(=O)Nc2ccc3c(c2)OCO3)cc1` (stereo not drawn) [WX-C332, 3,4-Methylenedioxyphenyl-aminocarbonyl-(D)-Ser-Gly-(4-guanidinobenzyl)amide hydrochloride], the pKi (urokinase (uPA); read-out: Ki uPA) was < 4.70.
In the case of `CCCCCCCCS(=O)(=O)NC(CO)C(=O)NCC(=O)NCc1ccc(NC(=N)N)cc1` (stereo not drawn) [WX-C302, n-Octyl-sulfonyl-(D)-Ser-Gly-(4-guanidinobenzyl)amide hydrochloride], the pKi (urokinase (uPA); read-out: Ki uPA) was 6.30.
Compound `N=C(N)Nc1ccc(CNC(=O)CNC(=O)C(CNC(=O)OCc2ccccc2)NS(=O)(=O)Cc2ccccc2)cc1` (stereo not shown) [WX-M5, benzylsulfonyl-(D)-Dap(Z)-Gly-(4-guanidinobenzyl)amide hydrochloride] has a pKi (urokinase (uPA); read-out: Ki uPA) of 6.30.
`CC1(C)C2CCC1(CS(=O)(=O)NC(CO)C(=O)NCC(=O)NCc1ccc(NC(=N)N)cc1)C(=O)C2` (stereo not drawn) [WX-C296, (−)-Camphor-10-sulfonyl-(D)-Ser-Gly-4-guanidinobenzyl)amide hydrochloride] showed a pKi (urokinase (uPA); read-out: Ki uPA) of 6.35.
Compound `CC1(C)C2CCC1(CS(=O)(=O)NC(CO)C(=O)NCC(=O)NCc1ccc(NC(=N)N)cc1)C(=O)C2` (stereo not drawn) [WX-C298, (+)-Camphor-10-sulfonyl-(D)-Ser-Gly-(4-guanidinobenzyl)amide hydrochloride] has a concentration at 20 min ([1]; 30 mg/kg, 30 mg/kg oral) of 200 ng/mL, a concentration at 40 min ([1]; 30 mg/kg, 30 mg/kg oral) of 400 ng/mL and a concentration at 60 min ([1]; 30 mg/kg, 30 mg/kg oral) of 100 ng/mL. It also gave a concentration at 20 min ([1]; 300 mg/kg, 300 mg/kg oral) of 17000 ng/mL, a concentration at 40 min ([1]; 300 mg/kg, 300 mg/kg oral) of 10700 ng/mL and a concentration at 60 min ([1]; 300 mg/kg, 300 mg/kg oral) of 7000 ng/mL. The “c in the serum 1st analysis” value ([1]; time of sample collection 0) was 66.2 µg/mL, the “c in the serum 1st analysis” value ([1]; time of sample collection 10) was 18.3 µg/mL and the “c in the serum 1st analysis” value ([1]; time of sample collection 30) was 2.1 µg/mL. It also gave a pKi (urokinase (uPA); read-out: Ki uPA) of 6.80 and a pKi (urokinase (uPA); [2]) of 6.80.
For `N=C(N)Nc1ccc(CNC(=O)CNC(=O)C(CO)NC(=O)Nc2cccc(Cl)c2)cc1` (stereo not drawn) [WX-C292, 3-Chlorophenyl-aminocarbonyl-(D)-Ser-Gly-(4-guanidinobenzyl)amide hydrochloride], the “Ki uPA” value (urokinase (uPA)) was “no inh. *)”.
